Assay results from patent US7129398B2, “Reversible male sterility in transgenic plants by expression of a GA-insensitive mutant protein, gai” (Monsanto Technology LLC, priority 2001, dated 2006).

Tested on: male sterile transgenic plants (pMON42169, TA29-gai)
Assay: Fertility restoration of gai male sterile transgenic tobacco plants by chemical spray
Type: in vivo, Nicotiana tabacum
Settings: for restoration of male fertility: aqueous 0.25% Sylgard 309; for Seed weight: mean of 5 seed sets ± SE
Description: Kanamycin resistant F1 seedlings were transferred to soil and grown to flowering stage. After male sterility in the first few flowers was observed, plants from each lines were divided into four groups to receive different treatments every other day. One group received 15 mg of kinetin (a synthetic cytokinin) (Sigma) per plant, while the other two groups received either 10 mg of GA3 (Sigma) or 10 mg of TDZ (Sigma) per plant. The chemicals are in an aqueous solution containing 0.25% of Sylgard 309 surfactant (Willbur-Ellis, Fresno, Calif.) and the last group received surfactant only. The applications continued for two weeks. In another experiment, F1 plants from several male sterile transgenic lines were selected based on resistance to kanamycin and grown to flowering to verify the inheritance of the male sterile phenotype. Each plant was then sprayed with a solution containing 15 mg of kinetin every other day for two weeks. The plants continued to develop male sterile flowers until 10 days after the first application of kinetin. At 10 days post-application, the flowers that developed were male fertile. Flowers from treated plants began visibly shedding pollen whereas untreated flowers remained sterile. Under greenhouse growth conditions, the transition from stage −3 to stage 12 for a tobacco floral bud occurred in approximately 10 days. It appeared that for effective fertility restoration, kinetin needed to be applied prior to stage −2, which coincided with the onset of the TA29 promoter.

[1] = F1 male sterile transgenic tobacco, 10 mg per plant every other day for two weeks

## O=C(Nc1ccccc1)Nc1cnns1 [TDZ]
[1]
  restoration of male fertility: did not restore the fertility

## C=C1C[C@]23C[C@@]1(O)CC[C@H]2[C@@]12C=C[C@H](O)[C@@](C)(C(=O)O1)[C@H]2[C@@H]3C(=O)O [GA3]
[1]
  restoration of anther development: did not restore the anther development
  restoration of male fertility: remained male sterile

## c1coc(CNc2ncnc3[nH]cnc23)c1 [kinetin]
15 mg per plant every other day for two weeks
  persistence of production of male fertile flowers post-application: 11 days
15 mg per plant every other day for two weeks, F1 male sterile transgenic tobacco lines
  time after first application until developing flowers were male fertile: 10 days
F1 male sterile transgenic tobacco, 15 mg per plant every other day for two weeks
  restoration of male fertility: shed pollen and set seeds
Event 782 (S): selfing after fertility restoration
  Seed weight: 113.0 ± 18.9 mg
Event 790 (S): selfing after fertility restoration
  Seed weight: 110.2 ± 13.5 mg
kinetin-restored flowers of male sterile transgenic tobacco
  morphology and seed set of restored flowers: morphologically normal but also had typical seed sets
Lines 788 and 790
  difference in seed weight, selfed seed of restored flowers vs crossed seed of sterile flowers and selfed seed of wild-type flowers: no significant difference
